US10106556B2, “Heterocyclic compound” (TAKEDA PHARMACEUTICAL COMPANY LIMITED, priority 2015, dated 2018)

Biological target: T1, His-hMAGL (recombinant polyhistidine tagged human MAGL protein) (Homo sapiens, UniProt Q99685)
T1 construct: made in house; host or cells: E. coli BL21(DE3)
T1 sequence (Q99685 1-303): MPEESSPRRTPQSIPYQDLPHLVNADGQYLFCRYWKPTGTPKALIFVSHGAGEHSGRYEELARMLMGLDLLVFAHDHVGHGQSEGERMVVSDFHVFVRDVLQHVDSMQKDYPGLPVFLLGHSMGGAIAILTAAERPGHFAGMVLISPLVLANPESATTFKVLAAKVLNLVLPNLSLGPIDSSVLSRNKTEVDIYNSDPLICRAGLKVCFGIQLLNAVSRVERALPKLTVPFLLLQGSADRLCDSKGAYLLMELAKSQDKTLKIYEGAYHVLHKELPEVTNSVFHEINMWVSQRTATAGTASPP
Test: Measurement of MAGL inhibitory activity (arachidonic acid production from 2-arachidonylglycerol, RapidFire-mass spectrometry)
Type: biochemical
Conditions: MAGL inhibitory rate at 10 μM test compound, 60 min preincubation with His-hMAGL, 2-arachidonylglycerol substrate, 10 min reaction at room temperature
Summary of the method: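 Recombinant His-tagged human MAGL converted 2-arachidonylglycerol to arachidonic acid. Reactions received acetonitrile with 3 μM arachidonic acid-d8 as internal standard, and product was quantified by RapidFire SPE (C4) with negative-mode SRM mass spectrometry. Percent inhibition was calculated against compound-free and enzyme-free controls.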

| Structure (SMILES) | % inhibition (10 μM) (10 µM) [%] | inhibition at 10 µM [%] |
| --- | --- | --- |
| CC(Oc1cc(F)cc(F)c1)C1CN(C(=O)c2cc3c(cc2F)OCC(=O)N3)C1 (stereo not shown) [Example 315, 6-((3-(1-(3,5-difluorophenoxy)ethyl)azetidin-1-yl)carbonyl)-7-fluoro-2H-1,4-benzoxazin-3(4H)-one] | 102 | – |
| O=C1COc2cc(F)c(C(=O)N3CCC(COc4cccn5nccc45)CC3)cc2N1 [Example 274, 7-fluoro-6-((4-((pyrazolo[1,5-a]pyridin-4-yloxy)methyl)piperidin-1-yl)carbonyl)-2H-1,4-benzoxazin-3(4H)-one] | – | 102 |
| O=C1COc2ccc(C(=O)N3CCC(COc4ccc5ccccc5c4)CC3)cc2N1 [Example 60, 6-((4-((2-naphthyloxy)methyl)piperidin-1-yl)carbonyl)-2H-1,4-benzoxazin-3(4H)-one] | – | 92 |
| O=C(c1ccc2oc(=O)[nH]c2c1)N1CCC(COc2ccccc2Cl)CC1 [Example 29, 5-((4-((2-chlorophenoxy)methyl)piperidin-1-yl)carbonyl)-1,3-benzoxazol-2(3H)-one] | – | 96 |
| CC(C)(C)c1ccccc1OCC1CN(C(=O)c2ccc3c(c2)NC(=O)CO3)C1 [Example 146, 6-((3-((2-tert-butylphenoxy)methyl)azetidin-1-yl)carbonyl)-2H-1,4-benzoxazin-3(4H)-one] | – | 97 |
| N#Cc1cc(C(F)(F)F)ccc1OCC1CCN(C(=O)c2ccc3c(c2)NC(=O)CO3)CC1 [Example 67] | – | 101 |
| COC(=O)c1cc(F)ccc1OCC1CCN(C(=O)c2cc3c(cc2F)OCC(=O)N3)CC1 [Example 85, methyl 5-fluoro-2-((1-((7-fluoro-3-oxo-3,4-dihydro-2H-1,4-benzoxazin-6-yl)carbonyl)piperidin-4-yl)methoxy)benzoate] | – | 102 |
| Cc1cccc(COC2CN(C(=O)c3cc4c(cc3F)OCC(=O)N4)C2)c1 [Example 329, 7-fluoro-6-((3-((3-methylbenzyl)oxy)azetidin-1-yl)carbonyl)-2H-1,4-benzoxazin-3(4H)-one] | – | 100 |
| O=C1COc2ccc(C(=O)N3CCC(COc4cc(Cl)cc(Cl)c4)CC3)cc2N1 [Example 45, 6-((4-((3,5-dichlorophenoxy)methyl)piperidin-1-yl)carbonyl)-2H-1,4-benzoxazin-3(4H)-one] | – | 98 |
| O=C1COc2cc(Cl)c(C(=O)N3CCC(COc4ccc(F)cc4Cl)CC3)cc2N1 [Example 86, 7-chloro-6-((4-((2-chloro-4-fluorophenoxy)methyl)piperidin-1-yl)carbonyl)-2H-1,4-benzoxazin-3(4H)-one] | – | 98 |
| O=C1COc2cc(F)c(C(=O)N3CCC(COc4ccc(-c5ccccc5)cc4)CC3)cc2N1 [Example 149, 6-((4-((biphenyl-4-yloxy)methyl)piperidin-1-yl)carbonyl)-7-fluoro-2H-1,4-benzoxazin-3(4H)-one] | – | 85 |
| C=C(C)c1ccc(OCC2CCN(C(=O)c3cc4c(cc3F)OCC(=O)N4)CC2)c(Cl)c1 [Example 82, 6-((4-((2-chloro-4-(prop-1-en-2-yl)phenoxy)methyl)piperidin-1-yl)carbonyl)-7-fluoro-2H-1,4-benzoxazin-3(4H)-one] | – | 101 |
| O=C1COc2ccc(C(=O)N3CCC(COc4cccc(F)c4Cl)CC3)cc2N1 [Example 56, 6-((4-((2-chloro-3-fluorophenoxy)methyl)piperidin-1-yl)carbonyl)-2H-1,4-benzoxazin-3(4H)-one] | – | 101 |
| Cc1ccc(OCC2CCN(C(=O)c3ccc4c(c3)NC(=O)CO4)CC2)c(Cl)n1 [Example 40, 6-((4-(((2-chloro-6-methylpyridin-3-yl)oxy)methyl)piperidin-1-yl)carbonyl)-2H-1,4-benzoxazin-3(4H)-one] | – | 95 |
| O=C1COc2cc(F)c(C(=O)N3CC(OCc4ccc(N5CC(F)C5)cc4Cl)C3)cc2N1 [Example 353, 6-((3-((2-chloro-4-(3-fluoroazetidin-1-yl)benzyl)oxy)azetidin-1-yl)carbonyl)-7-fluoro-2H-1,4-benzoxazin-3(4H)-one] | – | 100 |
| O=C1COc2cc(F)c(C(=O)N3CC(OCc4ccccc4OC(F)F)C3)cc2N1 [Example 341] | – | 101 |
| O=C1COc2cc(F)c(C(=O)N3CC(OCc4ccc5scnc5c4)C3)cc2N1 [Example 344, 6-((3-(1,3-benzothiazol-5-ylmethoxy)azetidin-1-yl)carbonyl)-7-fluoro-2H-1,4-benzoxazin-3(4H)-one] | – | 99 |
| O=C1COc2cc(F)c(C(=O)N3CC(OCc4ccccc4)C3)cc2N1 [Example 327, 6-((3-(benzyloxy)azetidin-1-yl)carbonyl)-7-fluoro-2H-1,4-benzoxazin-3(4H)-one] | – | 99 |

Further lines, results first:

| % inhibition (10 μM) (10 µM) [%] | inhibition at 10 µM [%] | Structure (SMILES) |
| --- | --- | --- |
| – | 97 | O=C1COc2cc(F)c(C(=O)N3CC(COc4cccc5scnc45)C3)cc2N1 [Example 105, 6-((3-((1,3-benzothiazol-4-yloxy)methyl)azetidin-1-yl)carbonyl)-7-fluoro-2H-1,4-benzoxazin-3(4H)-one] |
| – | 100 | Cc1nc(F)ccc1-c1ccc(OCC2CN(C(=O)c3cc4c(cc3F)OCC(=O)N4)C2)c(F)c1 [Example 290, 7-fluoro-6-((3-((2-fluoro-4-(6-fluoro-2-methylpyridin-3-yl)phenoxy)methyl)azetidin-1-yl)carbonyl)-2H-1,4-benzoxazin-3(4H)-one] |
| – | 101 | O=C1COc2cc(F)c(C(=O)N3CC(OCc4ccc(F)cc4Cl)C3)cc2N1 [Example 322, 6-((3-((2-chloro-4-fluorobenzyl)oxy)azetidin-1-yl)carbonyl)-7-fluoro-2H-1,4-benzoxazin-3(4H)-one] |
| – | 103 | O=C1COc2cc(F)c(C(=O)N3CC(COc4ccc(F)c(C(F)(F)F)c4)C3)cc2N1 [Example 278, 7-fluoro-6-((3-((4-fluoro-3-(trifluoromethyl)phenoxy)methyl)azetidin-1-yl)carbonyl)-2H-1,4-benzoxazin-3(4H)-one] |
| – | 100 | O=C1COc2cc(F)c(C(=O)N3CC(F)(COc4ccc(F)cc4Cl)C3)cc2N1 [Example 96, 6-((3-((2-chloro-4-fluorophenoxy)methyl)-3-fluoroazetidin-1-yl)carbonyl)-7-fluoro-2H-1,4-benzoxazin-3(4H)-one] |
| – | 100 | O=C1COc2cc(F)c(C(=O)N3CC(OCc4ccc(Cl)cc4F)C3)cc2N1 [Example 349, 6-((3-((4-chloro-2-fluorobenzyl)oxy)azetidin-1-yl)carbonyl)-7-fluoro-2H-1,4-benzoxazin-3(4H)-one] |
| – | 103 | CC(Oc1cc(F)ccc1F)C1CN(C(=O)c2cc3c(cc2F)OCC(=O)N3)C1 (stereo not shown) [Example 303, 6-((3-(1-(2,5-difluorophenoxy)ethyl)azetidin-1-yl)carbonyl)-7-fluoro-2H-1,4-benzoxazin-3(4H)-one] |
| – | 97 | O=C1COc2cc(F)c(C(=O)N3CC(COc4ccc(-c5cncc(F)c5)cc4F)C3)cc2N1 [Example 234, 7-fluoro-6-((3-((2-fluoro-4-(5-fluoropyridin-3-yl)phenoxy)methyl)azetidin-1-yl)carbonyl)-2H-1,4-benzoxazin-3(4H)-one] |
| – | 101 | O=C1COc2cc(F)c(C(=O)N3CC(COc4ccc(OC(F)F)cc4)C3)cc2N1 [Example 270, 6-((3-((4-(difluoromethoxy)phenoxy)methyl)azetidin-1-yl)carbonyl)-7-fluoro-2H-1,4-benzoxazin-3(4H)-one] |
| – | 99 | O=C1COc2cc(F)c(C(=O)N3CC(COc4ccc(-c5ccccc5)cc4)C3)cc2N1 [Example 108, 6-((3-((biphenyl-4-yloxy)methyl)azetidin-1-yl)carbonyl)-7-fluoro-2H-1,4-benzoxazin-3(4H)-one] |
| – | 102 | O=C1COc2cc(F)c(C(=O)N3CC(COCc4ccccc4Cl)C3)cc2N1 [Example 148, 6-((3-(((2-chlorobenzyl)oxy)methyl)azetidin-1-yl)carbonyl)-7-fluoro-2H-1,4-benzoxazin-3(4H)-one] |
| – | 101 | O=C1COc2cc(F)c(C(=O)N3CC(COc4cccc(Cl)c4)C3)cc2N1 [Example 112, 6-((3-((3-chlorophenoxy)methyl)azetidin-1-yl)carbonyl)-7-fluoro-2H-1,4-benzoxazin-3(4H)-one] |
| – | 100 | CC(Oc1c(F)cccc1F)C1CN(C(=O)c2cc3c(cc2F)OCC(=O)N3)C1 (stereo not shown) [Example 306, 6-((3-(1-(2,6-difluorophenoxy)ethyl)azetidin-1-yl)carbonyl)-7-fluoro-2H-1,4-benzoxazin-3(4H)-one] |
| – | 102 | Cc1ccc(OCC2CN(C(=O)c3cc4c(cc3F)OCC(=O)N4)C2)c(Cl)c1 [Example 117, 6-((3-((2-chloro-4-methylphenoxy)methyl)azetidin-1-yl)carbonyl)-7-fluoro-2H-1,4-benzoxazin-3(4H)-one] |
| – | 101 | CC1(COc2ccc(F)cc2Cl)CN(C(=O)c2cc3c(cc2F)OCC(=O)N3)C1 [Example 283, 6-((3-((2-chloro-4-fluorophenoxy)methyl)-3-methylazetidin-1-yl)carbonyl)-7-fluoro-2H-1,4-benzoxazin-3(4H)-one] |
| – | 97 | O=C1COc2cc(F)c(C(=O)N3CC(COc4cccc(-c5ccccc5)c4)C3)cc2N1 [Example 110, 6-((3-((biphenyl-3-yloxy)methyl)azetidin-1-yl)carbonyl)-7-fluoro-2H-1,4-benzoxazin-3(4H)-one] |
